The structures appear in SMILES notation.

The test system of data set [1] is A2780 ovarian cancer cell line. As to conditions: meta-bridged analogs, earlier work (Org. Lett. 2001, 3, 2461); cited from earlier work.
Data set [2] concerns A2780 ovarian cancer cell line. Nature of the data set: Cytotoxicity against A2780 ovarian cancer cell line. As to conditions: for times more potent/active than PTX against A2780: A2780, relative to PTX; for IC50(cp)/IC50(tx) A2780: ratio of compound IC50 to Taxol IC50, A2780.
The subject of another data set is PC-3 prostate cell line. Nature of the data set: Cytotoxicity against PC3 prostate cancer cell line. As to conditions: for IC50(cp)/IC50(tx) PC3: ratio of compound IC50 to Taxol IC50, PC3.
For data set [3], the system named is paclitaxel resistant and epothilone A resistant cell lines. Nature of the data set: Activity against paclitaxel resistant and epothilone A resistant cell lines. In kind it is cell-based.
Another data set concerns GDP-tubulin. As to the kind of experiment: Critical concentration determination of tubulin assembly. In kind it is biochemical. As to conditions: Taxoid concentration 10 μM; 37° C., PME buffer, 4% DMSO. The protocol: Critical Concentration Determination. The critical concentration of tubulin in the presence of 10 μM Taxol or Taxol analog was determined from assembly experiments performed at 37° C. with GDP-tubulin in PME buffer (100 mM PIPES, 2 mM MgSO4, 1 mM EGTA, pH=6.90) containing 4% DMSO. The extent of assembly was measured at different tubulin concentrations (0.5-6 μM) by light scattering (apparent absorption at 350 nm). Critical concentrations were calculated from the x-intercepts of plots of apparent A350 nm VS. tubulin concentration.

In data set [4] the test system is Taxol binding site on crosslinked microtubules (polymerized tubulin). Nature of the data set: Competition binding with fluorescent Taxol N-AB-PT. As to conditions: 10 μM Taxol or Taxoid, 5 μM N-AB-PT, 5 μM crosslinked microtubules. The protocol:
Competition Binding Experiments. The relative affinities of Taxol and derivatives for polymerized tubulin were assessed by competition assays. Crosslinked microtubules were prepared in glycerol assembly buffer (10 mM phosphate, 1 mM EGTA, 0.1 mM GTP 3.4 M glycerol, pH 6.9) as described by Andreu and Barasoain. Prior to use, the crosslinked microtubules were dialyzed against PME buffer for 16-18 hr. Crosslinked microtubules (5 μM) and the fluorescent Taxol derivative N-AB-PT (15, 5 μM) in PME buffer were incubated for 20 min at room temperature with 10 μM of Taxol or the Taxoid. The fluorescence emission intensity at 412 nm of each sample was recorded using a Jobin-Yvon Horiba Fluoromax-3 spectrofluorometer in a 2 mm×10 mm quartz cell (1ex=320 nm) and compared to the emission intensity of the system in the absence of competitor.
For the fall competition experiment, microtubules, N-AB-PT and varying concentrations of Taxol or 13b (0-30 μM) were treated in the same manner and their emission intensities were measured. The full competition experiment was repeated using pure tubulin assembled by N-AB-PT and identical results were obtained (data not shown).

Another data set concerns purified tubulin. As to conditions: read-out: ED50, Tb polymerization; Tubulin concentration 5 μM.

Consider `CC(=O)O[C@H]1C(=O)[C@@]2(C)[C@@H]3[C@H](OC(=O)c4ccccc4)[C@]4(O)C[C@H](OC(=O)C(O)C(NC(=O)c5ccccc5)c5cccc(c5)OC/C=C\CCC(=O)O[C@]35CO[C@@H]5C[C@@H]2O)C(C)=C1C4(C)C` (some centres unmarked) [Compound 16], for which the “potency as cytotoxins, fold less than Taxol/PTX” value in data set [1] is listed as “less than one-tenth the activity of Taxol”.

`CC(=O)O[C@H]1C(=O)[C@@]2(C)[C@@H]3[C@H](OC(=O)c4ccccc4)[C@]4(O)C[C@H](OC(=O)[C@H](O)[C@@H](NC(=O)c5ccccc5)c5ccccc5CCCC(=O)O[C@]35CO[C@@H]5C[C@@H]2O)C(C)=C1C4(C)C` [Compound 16d]: the “times more potent/active than PTX against A2780” value in data set [2] was “about 10 times”. Besides, the “cytotoxicity against PC3 in words, compared with PTX/Taxol” value with PC-3 prostate cell line is “slightly more cytotoxicity than PTX”. In data set [3], the “times better activity than paclitaxel” value is 100 times.

`CC(=O)OC1C(=O)C2(C)C(O)CC3OCC34OC(=O)CCCOc3ccccc3C(NC(=O)c3ccccc3)C(O)C(=O)OC3CC(O)(C(OC(=O)c5ccccc5)C42)C(C)(C)C1=C3C` (centres unmarked) [Compound 14b]: the “cytotoxicity against A2780 in words, compared with PTX/Taxol or related analogs” value in data set [2] (A2780) was “slightly less potent”. Besides, the “IC50(cp)/IC50(tx) A2780” value in data set [2] is recorded as 1.2. For the same compound, the “Critical Tb conc.” value with GDP-tubulin came to 1.3 ± 0.33 µM. In addition, the “Inhibit binding F-Taxol” value in data set [4] amounted to 7%. In the data set with PC-3 prostate cell line, the “cytotoxicity against PC3 in words, compared with PTX/Taxol” value was “slightly less potent” and the “IC50(cp)/IC50(tx) PC3” value was found to be 3.3. Moreover, the EC50 in the data set with purified tubulin was 0.83 ± 0.19 µM.

Turning to `CC(=O)OC1C(=O)C2(C)C(O)CC3OCC34OC(=O)CCCc3ccccc3C(NC(=O)c3ccccc3)C(O)C(=O)OC3CC(O)(C(OC(=O)c5ccccc5)C42)C(C)(C)C1=C3C` (centres unmarked) [Compound 14a], in data set [2] (A2780), the “cytotoxicity against A2780 in words, compared with PTX/Taxol or related analogs” value was “more potent than Taxol”. Moreover, in data set [2], the “IC50(cp)/IC50(tx) A2780” value is 0.08. In addition, in the data set on GDP-tubulin, the “Critical Tb conc.” value was 0.35 ± 0.06 µM. The “Inhibit binding F-Taxol” value in data set [4] was determined as 79%. Also, in the data set on PC-3 prostate cell line, the “cytotoxicity against PC3 in words, compared with PTX/Taxol” value was “more potent than Taxol” and the “IC50(cp)/IC50(tx) PC3” value was found to be 0.67. In addition, the EC50 in the data set on purified tubulin is 0.21 ± 0.09 µM.

Regarding `CC(=O)O[C@H]1C(=O)[C@@]2(C)[C@@H]3[C@H](OC(=O)c4ccccc4)[C@]4(O)C[C@H](OC(=O)[C@H](O)[C@@H](NC(=O)c5ccccc5)c5ccccc5C/C=C\C(=O)O[C@]35CO[C@@H]5C[C@@H]2O)C(C)=C1C4(C)C` [Compound 13a], in data set [2] (A2780), the “cytotoxicity against A2780 in words, compared with PTX/Taxol or related analogs” value is “approximately twenty times more potent than Taxol” and the “fold more potent than previous best analog 15” value is given as “approximately 300 fold”. Besides, the “IC50(cp)/IC50(tx) A2780” value in data set [2] is on record as 0.045. Further, in the data set on GDP-tubulin, the “Critical Tb conc.” value worked out at 0.53 ± 0.07 µM. Besides, the “Inhibit binding F-Taxol” value in data set [4] came to 72%. In the data set with PC-3 prostate cell line, the “cytotoxicity against PC3 in words, compared with PTX/Taxol” value was “slightly more cytotoxic than Taxol” and the “IC50(cp)/IC50(tx) PC3” value amounted to 0.69. Further, the EC50 with purified tubulin is 0.3 ± 0.09 µM.

As to `CC(=O)O[C@H]1C(=O)[C@@]2(C)[C@@H]3[C@H](OC(=O)c4ccccc4)[C@]4(O)C[C@H](OC(=O)[C@H](O)[C@@H](NC(=O)c5ccccc5)c5ccccc5C/C=C\C(=O)O[C@]35CO[C@@H]5C[C@@H]2O)C(C)=C1C4(C)C` [Compound 15d], the “times more potent/active than PTX against A2780” value in data set [2] was “at least 20 times”. Further, the “cytotoxicity against PC3 in words, compared with PTX/Taxol” value in the data set with PC-3 prostate cell line is on record as “slightly more cytotoxicity than PTX”. Further, the “times better activity than paclitaxel” value in data set [3] was found to be 100 times.
